# Experimental data published in patent US11414429B2, “Compound or pharmaceutically acceptable salt thereof” (RIKEN, priority 2016, dated 2022).
# Read-outs that look alike come from different tables or passages of the source.
# Tests used:
# [1] = target: T1, tankyrase 2 (TNKS 2) (Homo sapiens, UniProt Q9H2K2); test: Tankyrase inhibitory activity test (ELISA, self-polyADP ribosylation), tankyrase 2; format: biochemical; settings: self-polyADP ribosylation
# T1 construct: 613-1, 116aa; made in house; host or cells: cell-free protein synthesis system
# Outline: (§1)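 IC50 was fitted to residual self-polyADP-ribosylation activity, detected by HRP-streptavidin chemiluminescence. Plate-bound Flag fusions (TNKS1 1,024-1,327aa SAM+PARP; TNKS2 613-1,116aa ANK5+SAM+PARP, cell-free synthesized) saw compound for 10 min at room temperature in 50 mM Tris-HCl pH 8.0, 4 mM MgCl2, 0.2 mM DTT. Reaction with 225 μM NAD/25 μM 6-biotin-17-NAD solution ran 45 min at 30 °C.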
# [2] = tested on: human colorectal cancer cell line, COLO-320DM; test: Cell proliferation inhibitory activity test (Celltiter-Glo Luminescent Cell Viability Assay); format: cell-based; settings: COLO-320DM cells, 96 hours
# Outline: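 GI50 is taken as the concentration halving cell growth versus 1% DMSO control, measured by ATP luminescence. Compound exposure lasted 96 h at 37° C. under 5% CO2, after overnight seeding in RPMI-1640 with 10% FBS and 2 mM glutamine.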
# [3] = target: T2, tankyrase 1 (TNKS 1) (Homo sapiens, UniProt O95271); test: Tankyrase inhibitory activity test (ELISA, self-polyADP ribosylation), tankyrase 1; format: biochemical; settings: self-polyADP ribosylation
# T2 construct: 1,024-1,327aa; made in house; host or cells: cell-free protein synthesis system
# Outline: as §1
# [4] = tankyrase 2, ELISA, read-out: TNKS2 inhibitory activity (IC50 class)
# [5] = read-out: COLO-320 DM cell proliferation inhibitory activity (GI50 class)
# [6] = tankyrase 1, ELISA, read-out: TNKS1 inhibitory activity (IC50 class)
# [7] = ELISA, class symbols, read-out: TNKS2 (inhibitory activity against tankyrase 2, IC50 value)
# [8] = class symbols, read-out: COLO-320 DM (cell proliferation inhibitory activity, GI50 value)
# [9] = ELISA, class symbols, read-out: TNKS1 (inhibitory activity against tankyrase 1, IC50 value)
# T1 sequence (Q9H2K2 613-1166): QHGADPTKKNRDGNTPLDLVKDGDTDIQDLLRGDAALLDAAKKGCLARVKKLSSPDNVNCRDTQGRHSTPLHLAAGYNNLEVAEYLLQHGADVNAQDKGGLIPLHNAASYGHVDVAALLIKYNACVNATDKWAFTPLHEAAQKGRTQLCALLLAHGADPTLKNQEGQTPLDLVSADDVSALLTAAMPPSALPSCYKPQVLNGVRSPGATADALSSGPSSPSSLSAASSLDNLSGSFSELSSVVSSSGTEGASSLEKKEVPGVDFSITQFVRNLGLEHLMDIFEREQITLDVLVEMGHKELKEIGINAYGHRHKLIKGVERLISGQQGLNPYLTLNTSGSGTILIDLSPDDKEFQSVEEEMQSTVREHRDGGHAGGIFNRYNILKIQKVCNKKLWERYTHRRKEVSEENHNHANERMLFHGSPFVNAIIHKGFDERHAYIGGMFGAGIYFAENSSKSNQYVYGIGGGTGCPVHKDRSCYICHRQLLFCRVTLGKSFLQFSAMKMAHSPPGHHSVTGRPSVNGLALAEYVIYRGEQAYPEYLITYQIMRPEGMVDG
# T2 sequence (O95271 1024-1327): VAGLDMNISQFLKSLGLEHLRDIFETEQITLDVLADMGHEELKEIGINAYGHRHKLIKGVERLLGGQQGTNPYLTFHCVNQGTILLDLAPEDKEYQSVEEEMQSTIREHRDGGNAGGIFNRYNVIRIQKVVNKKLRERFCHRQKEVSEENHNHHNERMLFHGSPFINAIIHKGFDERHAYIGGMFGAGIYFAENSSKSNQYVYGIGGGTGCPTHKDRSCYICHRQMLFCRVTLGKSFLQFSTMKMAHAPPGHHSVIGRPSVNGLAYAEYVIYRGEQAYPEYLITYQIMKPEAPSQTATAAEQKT
"IC50 [1, 4] [nM]","GI50 [2, 5] [nM]","IC50 [3, 6] [nM]","IC50 [1, 7] [nM]","GI50 [2, 8] [nM]","IC50 [3, 9] [nM]",Structure (SMILES)
< 20,100 to 600,< 20,–,–,–,"CN1CCCc2c1nc(N1CCC3(CC1)C(=O)N(C)c1cc(OCCCN4CCCC4)cc(F)c13)[nH]c2=O [Example 367, 4-fluoro-1-methyl-1′-(8-methyl-4-oxo-3,4,5,6,7,8-hexahydropy-rido[2,3-d]pyrimidin-2-yl)-6-[3-(pyrrolidin-1-yl)propoxy] spiro[indoline-3,4′-piperidin]-2-one]"
< 20,600 to 1000,< 20,–,–,–,"CN(C)CCOc1cc(F)c2c(c1)N(C)C(=O)C21CCN(c2nc3c(c(=O)[nH]2)CCCN3C)CC1 [Example 357, 6-[2-(dimethylamino)ethoxy]-4-fluoro-1-methyl-1′-(8-methyl-4-oxo-3,4,5,6,7,8-hexa-hydropyrido [2,3-d]pyrimidin-2-yl) spiro[indoline-3,4′-piperidin]-2-one]"
–,–,–,< 20,< 100,< 20,"CN1CCCc2c1nc(N1CCC3(CC1)C(=O)N(CC(C)(C)O)c1cccc(F)c13)[nH]c2=O [Example 447, 4-fluoro-1′-(4-hy-droxy-8-methyl-6,7-dihydro-5H-py-rido[2,3-d]pyrimidin-2-yl)-1-(2-hydroxy-2-methylpro-pyl)spiro[indole-3,4′-piperidine]-2-one]"
< 20,600 to 1000,20 to 200,–,–,–,"COc1cccc(CN2CC3(CCN(c4nc5c(c(=O)[nH]4)CCCC5)CC3)c3ccccc32)c1 [Example 99, 2-[1-(3-methoxy-benzyl)spiro[indoline-3,4′-piperidin]-1′-yl]-5,6,7,8-tetrahydroquinazolin-4(3H)-one]"
–,–,–,< 20,100 to 600,< 20,"CN1CCCc2c1nc(N1CCC3(CC1)C(=O)N(C)c1cc(N4CCN(C(=O)CO)CC4)cc(F)c13)[nH]c2=O [Example 460, 4-fluoro-6-[4-(2-hydroxyacetyl)piperazin-1-yl]-1-meth-yl-1′-(8-methyl-4-oxo-3,4,5,6,7,8-hexahydropyrido [2,3-d]pyrimidin-2-yl)spiro[indole-3,4′-piperidine]-2-one]"
–,–,–,< 20,100 to 600,< 20,"CN1CCCc2c1nc(N1CCC3(CC1)C(=O)N(C)c1cc(OCCNS(=O)(=O)N(C)C)cc(F)c13)[nH]c2=O [Example 428, 6-[2-(N,N-dimethyl-sulfamoyl)amino-ethoxy]-4-fluoro-1-methyl-1′-(8-methyl-4-oxo-3,4,5,6,7,8-hexahydro-pyrido[2,3-d]pyrimi-din-2-yl)spiro [indoline-3,4′-piperidin]-2(1 H)-one]"
–,–,–,< 20,100 to 600,< 20,"CN1CCCc2c1nc(N1CCC3(CC1)OC(=O)c1cc(N4CCN(CC(C)(C)O)CC4)cc(F)c13)[nH]c2=O [Example 439, 4-fluoro-1′-(4-hydroxy-8-methyl-6,7-dihydro-5H-pyrido[2,3-d]pyrimidin-2-yl)-6-[4-(2-hydroxy-2-methyl-propyl)piperazin-1-yl] spiro[2,3-benzofuran-3,4′-piperidine]-1-one]"
< 20,100 to 600,< 20,–,–,–,"O=c1[nH]c(N2CCC3(CC2)CN(Cc2ccccn2)c2cc(F)cc(F)c23)nc2c1CCCC2 [Example 253, 2-[4,6-difluoro-1-(pyridin-2-yl)methyl-spiro [indoline-3,4′-piperidin]-1′-yl]-5,6,7,8-tetrahydro-quinazolin-4(3H)-one]"
–,–,–,20 to 200,100 to 600,20 to 200,"CN1CCCc2c1nc(N1CCC3(CC1)C(=O)N(C)c1cc(OCCNS(C)(=O)=O)cc(F)c13)[nH]c2=O [Example 432, N-(2-{[4-fluoro-1-methyl-1′-(8-methyl-4-oxo-3,4,5,6,7,8-hexahy-dropyrido[2,3-d]py-rimidin-2-yl)-2-oxospiro [indoline-3,4′-piperi-din]-6-yl]oxy}ethyl) methanesulfonamide]"
–,–,–,< 20,600 to 1000,< 20,"O=C1OC2(CCN(c3nc4c(c(=O)[nH]3)CCCN4)CC2)c2c(F)cc(N3CCOCC3)cc21 [Example 471, 7-fluoro-1′-(4-hydroxy-6,7-dihydro-5H-pyrido[2,3-d]pyrimidin-2-yl)-6-morpholino-4-ylspiro[2-benzofuran-3,4′-piperidin]-1-one]"
< 20,< 100,< 20,–,–,–,"COc1cc(F)c2c(c1)N(CCO)C(=O)C21CCN(c2nc3c(c(=O)[nH]2)CCCN3C)CC1 [Example 373, 4-fluoro-1-(2-hydroxy-ethyl)-6-methoxy-1′-(8-methyl-4-oxo-3,4,5,6,7,8-hexahydropyrido [2,3-d]pyrimidin-2-yl) spiro[indoline-3,4′-piperidin]-2-one]"
–,–,–,< 20,100 to 600,< 20,"N#CCOc1cc(F)c2c(c1)N(CC(F)(F)F)C(=O)C21CCN(c2nc3c(c(=O)[nH]2)CCCN3)CC1 [Example 435, 2-[4-fluoro-2-oxo-1′-(4-oxo-3,4,5,6,7-hex-ahydropyrido[2,3-d]pyrimidin-2-yl)-1-(2,2,2-trifluoroethyl)spiro [indole-3,4′-piperidine]-6-yl]oxyacetonitrile]"
–,–,–,20 to 200,100 to 600,20 to 200,"COCCN1CCN(c2cc(F)c3c(c2)N(C)C(=O)C32CCN(c3nc4c(c(=O)[nH]3)CCCN4C)CC2)CC1 [Example 397, 4-fluoro-6-(4-(2-methoxy-ethyl)piperazin-1-yl)-1-methyl-1′-(8-methyl-4-oxo-3,4,5,6,7,8-hexahydro-pyrido [2,3-d]pyrimidin-2-yl) spiro[indoline-3,4′-piperidin]-2(1H)-one]"
< 20,< 100,< 20,–,–,–,"COc1cc(F)c2c(c1)N(CC#N)C(=O)C21CCN(c2nc3c(c(=O)[nH]2)CCCN3C)CC1 [Example 379, 2-[4-fluoro-6-methoxy-1′-(8-methyl-4-oxo-3,4,5,6,7,8-hexahydropyrido [2,3-d]pyrimidin-2-yl)-2-oxospiro [indoline-3,4′-piperidin]-1-yl] acetonitrile]"
–,–,–,< 20,100 to 600,< 20,"CNS(=O)(=O)COc1cc(F)c2c(c1)N(C)C(=O)C21CCN(c2nc3c(c(=O)[nH]2)CCCN3C)CC1 [Example 453, 1-{[4-fluoro-1-meth-yl-1′-(8-methyl-4-oxo-3,4,5,6,7,8-hexahydropyrido [2,3-d]pyrimidin-2-yl)-2-oxospiro [indole-3,4′-piperi-dine]-6-yl]oxy}-N-methylmethane sulfonamide]"
< 20,100 to 600,20 to 200,–,–,–,"CN1CCCc2c1nc(N1CCC3(CC1)CN(Cc1cccnc1)c1cc(F)cc(F)c13)[nH]c2=O [Example 351, 2-[4,6-difluoro-1-(pyridin-3-ylmethyl)spiro [indoline-3,4′-piperi-dine]-1′-yl]-8-methyl-5,6,7,8-tetrahydro pyrido [2,3-d]pyrimidin-4(3H)-one]"

Structure (SMILES),"IC50 [1, 4] [nM]","GI50 [2, 5] [nM]","IC50 [3, 6] [nM]","IC50 [1, 7] [nM]","GI50 [2, 8] [nM]","IC50 [3, 9] [nM]"
"COc1ccc(F)c2c1NCC21CCN(c2nc3c(c(=O)[nH]2)CCCN3)CC1 [Example 474, 2-(4-fluoro-7-methoxyspiro[indoline-3,4′-piperidin]-1′-yl)-5,6,7,8-tetrahydropyrido[2,3-d]pyrimidin-4(3H)-one]",–,–,–,< 20,100 to 600,< 20
"COc1ccc2c(c1)C1(CCN(c3nc4c(c(=O)[nH]3)CCCC4)CC1)CN2C [Example 147, 2-(5-methoxy-1-meth-ylspiro[indoline-3,4′-piperidin]-1′-yl)-5,6,7,8-tetrahydroquinazolin-4(3H)-one]",< 20,600 to 1000,20 to 200,–,–,–
